{"source": "the NIST ThermoML archive (doi:10.1016/j.jct.2005.10.004)", "details": "Liquid, Buoyancy - hydrostatic balance with magnetic suspension - one sinker", "note": "Where “and” joins values, the source holds several entries; their conditions need not be identical. Identical values can stand only once. Numbers after ± are expanded uncertainties."}
{"smiles": "N#N", "note": "[nitrogen]", "values": [{"measurement": "mass density", "setting": "249.96 K, 5023.9 kPa", "value": "69.8983 ± 0.016", "unit": "kg/m3"}, {"measurement": "mass density", "setting": "249.96 K, 5024.2 kPa", "value": "69.9018 ± 0.016", "unit": "kg/m3"}, {"measurement": "mass density", "setting": "249.96 K, 10070 kPa", "value": "141.612 ± 0.031", "unit": "kg/m3"}, {"measurement": "mass density", "setting": "249.96 K, 15267 kPa", "value": "211.548 ± 0.045", "unit": "kg/m3"}, {"measurement": "mass density", "setting": "249.96 K, 15270 kPa", "value": "211.579 ± 0.045 kg/m3 and 211.588 ± 0.045 kg/m3"}, {"measurement": "mass density", "setting": "249.96 K, 19857 kPa", "value": "266.561 ± 0.056", "unit": "kg/m3"}, {"measurement": "mass density", "setting": "250 K, 4994.5 kPa", "value": "69.4686 ± 0.016", "unit": "kg/m3"}, {"measurement": "mass density", "setting": "274.97 K, 10066 kPa", "value": "125.016 ± 0.027 kg/m3 and 125.014 ± 0.027 kg/m3"}, {"measurement": "mass density", "setting": "274.97 K, 19871 kPa", "value": "235.319 ± 0.05", "unit": "kg/m3"}, {"measurement": "mass density", "setting": "274.97 K, 19875 kPa", "value": "235.358 ± 0.05", "unit": "kg/m3"}, {"measurement": "mass density", "setting": "299.97 K, 10974 kPa", "value": "122.253 ± 0.027", "unit": "kg/m3"}, {"measurement": "mass density", "setting": "299.97 K, 13855 kPa", "value": "152.56 ± 0.034 kg/m3 and 152.561 ± 0.034 kg/m3"}, {"measurement": "mass density", "setting": "299.97 K, 16780 kPa", "value": "181.982 ± 0.04", "unit": "kg/m3"}, {"measurement": "mass density", "setting": "299.98 K, 16788 kPa", "value": "182.05 ± 0.04", "unit": "kg/m3"}, {"measurement": "mass density", "setting": "399.99 K, 10101 kPa", "value": "81.9701 ± 0.018", "unit": "kg/m3"}, {"measurement": "mass density", "setting": "399.99 K, 14807 kPa", "value": "117.441 ± 0.025", "unit": "kg/m3"}, {"measurement": "mass density", "setting": "399.99 K, 17250 kPa", "value": "135.043 ± 0.029", "unit": "kg/m3"}, {"measurement": "mass density", "setting": "400 K, 7435.4 kPa", "value": "61.0376 ± 0.014", "unit": "kg/m3"}, {"measurement": "mass density", "setting": "400 K, 10100 kPa", "value": "81.9663 ± 0.018", "unit": "kg/m3"}, {"measurement": "mass density", "setting": "400 K, 19953 kPa", "value": "153.853 ± 0.033", "unit": "kg/m3"}, {"measurement": "mass density", "setting": "400 K, 19959 kPa", "value": "153.899 ± 0.033", "unit": "kg/m3"}]}
